Measurements taken from ChEMBL document CHEMBL1150372, “Synthesis, fluorine-18 radiolabeling, and in vitro characterization of 1-iodophenyl-N-methyl-N-fluoroalkyl-3-isoquinoline carboxamide derivatives as potential PET radioligands for imaging peripheral benzodiazepine receptor” (Bioorg Med Chem, 2008).

Experiments:
Translocator protein [1] = target: Translocator protein (Rattus norvegicus, UniProt P16257); assay: Displacement of [3H]PK11195 from PBR in rat kidney mitochondrial membrane; assay type: cell membranes
Translocator protein (Rattus norvegicus, UniProt P16257), sequence (P16257 whole entry, looked up): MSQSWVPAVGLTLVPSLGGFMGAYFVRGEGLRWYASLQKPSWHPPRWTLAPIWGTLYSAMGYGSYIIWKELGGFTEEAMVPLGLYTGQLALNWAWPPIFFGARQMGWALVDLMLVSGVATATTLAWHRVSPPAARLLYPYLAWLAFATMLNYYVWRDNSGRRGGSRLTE

[2] = Lipophilicity, log P at pH 7.4; assay type: physicochemical; details: buffer
Translocator protein [3] = target: Translocator protein (Homo sapiens, UniProt P30536); assay: Binding affinity to human PBR
Translocator protein (Homo sapiens, UniProt P30536), sequence (P30536 whole entry): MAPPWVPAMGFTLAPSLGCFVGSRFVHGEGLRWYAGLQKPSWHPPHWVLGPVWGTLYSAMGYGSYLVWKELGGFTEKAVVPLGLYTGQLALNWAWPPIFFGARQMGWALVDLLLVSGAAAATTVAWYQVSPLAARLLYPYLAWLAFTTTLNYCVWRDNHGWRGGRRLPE

Compound	IC50 (Translocator protein [1])	also measured
CN(CCCF)C(=O)c1cc2ccccc2c(-c2ccccc2I)n1	0.28 nM	–
CN(CCCF)C(=O)c1cc2ccccc2c(-c2cccc(I)c2)n1	1.4 nM	–
CN(CCCF)C(=O)c1cc2ccccc2c(-c2ccc(I)cc2)n1	66.5 nM	–
CN(CCF)C(=O)c1cc2ccccc2c(-c2ccccc2I)n1	445 nM	–
CN(CCC[18F])C(=O)c1cc2ccccc2c(-c2ccccc2I)n1	–	logD [2]: 3
CCCCCCN(CCCCCC)C(=O)Cc1c(-c2ccc(F)cc2)[nH]c2ccccc12	–	Kd (Translocator protein [3]): 4 nM
CN1C(=O)CN=C(c2ccc(Cl)cc2)c2cc(Cl)ccc21 [RO-54864]	–	Kd (Translocator protein [3]): 6 nM
